Where two headings read alike, the source gives them in different places. Bounds are passed on as bounds.

One assay has as its system isolated helical DNA. Description: ΔTm of isolated helical DNA (DNA-binding). Conditions: difference in DNA melting temperature with and without drug; ~1° weak binding if any, ≥5° significant binding. From the text:
(§1) Sufficient samples of all but compound (VIII) have been obtained for biological screening, and recent results of tests both in vitro and in vivo are shown in Table 2 below. […] The in vitro results are surprising and appear to be highly significant in that there is an abrupt and unexpected loss of DNA-binding properties in going from N-benzyl to N,N-dibenzyl compounds. ΔTm is the most direct measure of DNA-binding but the inhibition of nucleic acid synthesis is also lost. Most of the anthracyclines bind to DNA, presumably by an intercalation mechanism and are mutagenic. In these N,N-dibenzyl compounds the anti-tumor activity in the mouse screen is retained but the DNA-binding properties are lost.
^b ΔTm values represent the difference in temperature
between that at which the DNA denatures (or melts) without the drug and
that at which denaturing occurs in the presence of the drug;

The test system of assay [1] is L1210 Cells. The assay can be described thus: Inhibition of DNA synthesis in L1210 cells. The class given is cell-based. Conditions: Mus musculus. The source says:
(§2) ^c Assay described in G. Tong, W. W. Lee, D. R. Black and D. W. Henry

The test system of assay [2] is L1210 Cells. The assay can be described thus: Inhibition of RNA synthesis in L1210 cells. The class given is cell-based. The settings on record: Mus musculus.
Description: as §2

The test system of another assay is leukemia P388. The assay can be described thus: Ip P388 leukemia in mice, survival time (NCI Protocol 1,200). The class given is in vivo. The settings on record: for response vs control in vivo at 37.5 mg/kg: q4d 5,9,13, 37.5 mg/kg (optimum dose); for response vs control in vivo at 8 mg/kg: q4d 5,9,13, 8 mg/kg.
Description: as §1
Highest Mean T/C vs P388 in
^d Ip P388 leukemia treated ip on QD1-9 and Q4D 5,9,13 schedules
according to standard NCI protocols. Assay described in R. I. Geran, N. H
Greenberg, M. M. MacDonald, A. M. Schumacker and B. J. Abbott, Cancer
Chemother. Rep., Part 3, 3, (No. 2), 9 (1972), Protocol 1,200. T/C = rati
of survival time of treated mice to that of untreated controls times 100.
Untreated controls survive about 9 days. For Dnm and Adm, % T/C values ar
means from several dozen tests, with standard deviation up to ±40. For
the Nbenzyl compounds, % T/C values are means from all the tests (1 to 3)
so far, at the optimum dose.

[3] abbreviates: L1210 cells, DNA synthesis, read-out: Inhib of Synth, DNA, ED50.
Where [4] appears, read: L1210 cells, RNA synthesis, read-out: Inhib of Synth, RNA, ED50.
Where [5] appears, read: Mus musculus, P388, ip, mean from 1 to 3 tests, read-out: Highest Mean T/C vs P388 in Mice.
Setting [6] is: L1210, read-out: Inhib of Synth, DNA, ED50.
Setting [7] is: L1210, read-out: Inhib of Synth, RNA, ED50.
The mark [8] stands for this setting: Mus musculus, P388, ip, read-out: Highest Mean T/C vs P388 in Mice.
Setting [9] is: Mus musculus, P388, ip, qd 1-9, 6.25 mg/kg (optimum dose), mean from 1 to 3 tests, read-out: Highest Mean T/C vs P388 in Mice.
[10] abbreviates: Mus musculus, P388, ip, mean from several dozen tests, SD up to ±40, read-out: Highest Mean T/C vs P388 in Mice.

As for `COc1cccc2c1C(=O)c1c(O)c3c(c(O)c1C2=O)C[C@@](O)(C(C)=O)C[C@@H]3O[C@H]1C[C@H](N(Cc2ccccc2)Cc2ccccc2)[C@H](O)[C@H](C)O1` [Compound V, N,N-Dibenzyldaunomycin], the ΔTm in the assay with isolated helical DNA was determined as 1.35 °C. The IC50 in the assay on L1210 Cells [1] (setting [3]) was > 100000 nM; in the assay with L1210 Cells [2] (setting [4]), 10000 nM. The response vs control in vivo at 37.5 mg/kg in the assay with leukemia P388 (setting [5]) was determined as 227%. In addition, the response vs control in vivo at 25 mg/kg in the assay on leukemia P388 (Mus musculus, P388, ip, qd 1-9, 25 mg/kg (optimum dose), mean from 1 to 3 tests, read-out: Highest Mean T/C vs P388 in Mice) worked out at 259%. The “activity against leukemia P388 in mice (in words)” value with leukemia P388 (ip, mice) is “clearly the best”.
Consider `COc1cccc2c1C(=O)c1c(O)c3c(c(O)c1C2=O)C[C@@](O)(C(C)O)C[C@@H]3O[C@H]1C[C@H](N(Cc2ccccc2)Cc2ccccc2)[C@H](O)[C@H](C)O1` (stereo partly shown) [Compound VI, N,N-Dibenzyl-13-dihydrodaunomycin], for which the ΔTm in the assay on isolated helical DNA is 0.6 °C. Moreover, the IC50 in the assay on L1210 Cells [1] (L1210 cells, DNA synthesis, (susp), read-out: Inhib of Synth, DNA, ED50 (susp)) came out at 220000 nM; with L1210 Cells [2] (setting [4]), 7600 nM. In addition, in the assay with leukemia P388 (Mus musculus, P388, ip, q4d 5,9,13, 50 mg/kg (optimum dose), mean from 1 to 3 tests, read-out: Highest Mean T/C vs P388 in Mice), the response vs control in vivo at 50 mg/kg is 233%. The response vs control in vivo at 40 mg/kg with leukemia P388 (Mus musculus, P388, ip, qd 1-9, 40 mg/kg (optimum dose), mean from 1 to 3 tests, read-out: Highest Mean T/C vs P388 in Mice) came to 229%.
Turning to `COc1cccc2c1C(=O)c1c(O)c3c(c(O)c1C2=O)C[C@@](O)(C(=O)CO)C[C@@H]3O[C@H]1C[C@H](N(Cc2ccccc2)Cc2ccccc2)[C@H](O)[C@H](C)O1` [Compound VII, N,N-Dibenzyladriamycin], the ΔTm in the assay with isolated helical DNA was -1.2 °C. In addition, the IC50 was found to be 110000 nM in the assay on L1210 Cells [1] (setting [6]) and 4800 nM in the assay with L1210 Cells [2] (setting [7]). Moreover, the response vs control in vivo at 6.25 mg/kg with leukemia P388 (setting [8]) stood at 175%.
Turning to `COc1cccc2c1C(=O)c1c(O)c3c(c(O)c1C2=O)C[C@@](O)(C(C)=O)C[C@@H]3O[C@H]1C[C@H](NCc2ccccc2)[C@H](O)[C@H](C)O1` [I, N-Benzyldaunomycin], the ΔTm with isolated helical DNA came to 10.2 °C. Besides, the IC50 in the assay on L1210 Cells [1] (setting [6]) worked out at 1600 nM. The IC50 in the assay with L1210 Cells [2] (setting [7]) was 170 nM. In addition, in the assay on leukemia P388 (setting [8]), the response vs control in vivo at 6.25 mg/kg amounted to 187% and the response vs control in vivo at 18.8 mg/kg is 226%.
Consider `COc1cccc2c1C(=O)c1c(O)c3c(c(O)c1C2=O)C[C@@](O)(C(C)O)C[C@@H]3O[C@H]1C[C@H](NCc2ccccc2)[C@H](O)[C@H](C)O1` (stereo partly shown) [II, N-Benzyl-13-dihydrodaunomycin], for which the ΔTm in the assay on isolated helical DNA amounted to 6.25 °C. In addition, the IC50 turned out to be 1700 nM in the assay on L1210 Cells [1] (setting [3]) and 320 nM in the assay on L1210 Cells [2] (setting [4]). Also, in the assay with leukemia P388 (setting [9]), the response vs control in vivo at 6.25 mg/kg was found to be 226%.
On to `COc1cccc2c1C(=O)c1c(O)c3c(c(O)c1C2=O)C[C@@](O)(C(=O)CO)C[C@@H]3O[C@H]1C[C@H](NCc2ccccc2)[C@H](O)[C@H](C)O1` [III, N-Benzyladriamycin], for which, in the assay on isolated helical DNA, the ΔTm was 11.3 °C. Also, the values for the IC50 with L1210 Cells [1] (setting [3]) and with L1210 Cells [2] (setting [4]) were 650 nM and 90 nM, respectively. Moreover, the response vs control in vivo at 18.8 mg/kg in the assay on leukemia P388 (Mus musculus, P388, ip, q4d 5,9,13, 18.8 mg/kg (optimum dose), mean from 1 to 3 tests, read-out: Highest Mean T/C vs P388 in Mice) was found to be 200%. In addition, the response vs control in vivo at 6.25 mg/kg in the assay with leukemia P388 (setting [9]) amounted to 224%.
As to `COc1cccc2c1C(=O)c1c(O)c3c(c(O)c1C2=O)C[C@@](O)(C(O)CO)C[C@@H]3O[C@H]1C[C@H](NCc2ccccc2)[C@H](O)[C@H](C)O1` (stereo partly shown) [IV, N-Benzyl-13-dihydroadriamycin], in the assay with isolated helical DNA, the ΔTm was found to be 7.6 °C. The IC50 in the assay with L1210 Cells [1] (setting [3]) worked out at 1400 nM; in the assay with L1210 Cells [2] (setting [4]), 290 nM. For the same compound, the response vs control in vivo at 37.5 mg/kg with leukemia P388 (setting [5]) came to 143%. Also, the response vs control in vivo at 1.56 mg/kg with leukemia P388 (Mus musculus, P388, ip, qd 1-9, 1.56 mg/kg (optimum dose), mean from 1 to 3 tests, read-out: Highest Mean T/C vs P388 in Mice) stood at 196%.
For the compound `COc1cccc2c1C(=O)c1c(O)c3c(c(O)c1C2=O)C[C@@](O)(C(C)=O)C[C@@H]3O[C@H]1C[C@H](N)[C@H](O)[C@H](C)O1` [IX, Daunomycin, reference compound], the IC50 with L1210 Cells [1] (setting [3]) came out at 1000 nM; in the assay with L1210 Cells [2] (setting [4]), 300 nM. The response vs control in vivo at 8 mg/kg in the assay with leukemia P388 (setting [10]) amounted to 134%. Moreover, the response vs control in vivo at 0.5 mg/kg with leukemia P388 (Mus musculus, P388, ip, qd 1-9, 0.5 mg/kg, mean from several dozen tests, SD up to ±40, read-out: Highest Mean T/C vs P388 in Mice) was determined as 167%.
For `COc1cccc2c1C(=O)c1c(O)c3c(c(O)c1C2=O)C[C@@](O)(C(=O)CO)C[C@@H]3O[C@H]1C[C@H](N)[C@H](O)[C@H](C)O1` [X, Adriamycin, reference compound], the ΔTm in the assay with isolated helical DNA is 13.4 °C. In addition, the IC50 came out at 1500 nM in the assay with L1210 Cells [1] (setting [3]) and 670 nM in the assay with L1210 Cells [2] (setting [4]). Moreover, the response vs control in vivo at 8 mg/kg with leukemia P388 (setting [10]) worked out at 157%. Besides, the response vs control in vivo at 1 mg/kg with leukemia P388 (Mus musculus, P388, ip, qd 1-9, 1.0 mg/kg, mean from several dozen tests, SD up to ±40, read-out: Highest Mean T/C vs P388 in Mice) amounted to 193%.
